Experimental data: ChEMBL document CHEMBL5550123, “Discovery of novel pyridone-benzamide derivatives possessing a 1-methyl-2-benzimidazolinone moiety as potent EZH2 inhibitors for the treatment of B-cell lymphomas” (Bioorg Med Chem, 2024)

Key:
KARPAS-422 = assay: Antiproliferative activity against human KARPAS-422 cells assessed as inhibition of cell growth measured after 72 hrs by CCK-8 method; type: functional, cell-based; details: KARPAS-422, 72 h
[1] = Metabolic stability in human liver microsomes assessed as intrinsic clearance at 1 uM measured upto 60 mins in presence of NADPH by LC-MS/MS analysis; type: ADME, Microsome; details: read-out: CLH
[2] = Metabolic stability in human liver microsomes assessed as half life at 1 uM measured upto 60 mins in presence of NADPH by LC-MS/MS analysis; type: ADME, Microsome
[3] = Inhibition of EZH2 Y641N mutant (unknown origin) preincubated for 15 mins followed by substrate addition and measured after 45 mins by AlphaLISA assay; parameters: species or system Homo sapiens
[4] = Inhibition of EZH2 Y641F mutant (unknown origin) preincubated for 15 mins followed by substrate addition and measured after 45 mins by AlphaLISA assay; parameters: species or system Homo sapiens

Row | IC50 (KARPAS-422) | Compound | other results
1 | 159 nM | CCN(c1cc(-c2ccc3c(c2)n(C)c(=O)n3C2CCN(C)CC2)cc(C(=O)NCc2c(C)cc(C)[nH]c2=O)c1C)C1CCN(CC2CC2)CC1 | –
2 | 32.8 nM | CCN1CCC(n2c(=O)n(C)c3ccc(-c4cc(C(=O)NCc5c(C)cc(C)[nH]c5=O)c(C)c(N(CC)C5CCOCC5)c4)cc32)CC1 | –
3 | 154 nM | CCN(c1cc(-c2ccc3c(c2)n(C2CN(C4COC4)C2)c(=O)n3C)cc(C(=O)NCc2c(C)cc(C)[nH]c2=O)c1C)C1CCOCC1 | –
4 | 26.4 nM | CCN(C)C1CCC(N(CC)c2cc(-c3ccc4c(c3)n(C)c(=O)n4C3CCN(C)CC3)cc(C(=O)NCc3c(C)cc(C)[nH]c3=O)c2C)CC1 (stereo not given) | –
5 | 37.7 nM | CCC(=O)N1CCC(n2c(=O)n(C)c3cc(-c4cc(C(=O)NCc5c(C)cc(C)[nH]c5=O)c(C)c(N(CC)C5CCOCC5)c4)ccc32)CC1 | –
6 | 26.3 nM | CCN(c1cc(-c2ccc3c(c2)n(C2CCN(C)CC2)c(=O)n3C)cc(C(=O)NCc2c(C)cc(C)[nH]c2=O)c1C)C1CCOCC1 | –
7 | 68.4 nM | CCN(c1cc(-c2ccc3c(c2)n(C)c(=O)n3C2CCN(S(C)(=O)=O)CC2)cc(C(=O)NCc2c(C)cc(C)[nH]c2=O)c1C)C1CCOCC1 | –
8 | 29.3 nM | CCN(c1cc(-c2ccc3c(c2)n(C)c(=O)n3C2CN(C)C2)cc(C(=O)NCc2c(C)cc(C)[nH]c2=O)c1C)C1CCOCC1 | –
9 | 53.8 nM | CCN(c1cc(-c2ccc3c(c2)n(C)c(=O)n3C2CCN(CC#N)CC2)cc(C(=O)NCc2c(C)cc(C)[nH]c2=O)c1C)C1CCOCC1 | –
10 | 49.5 nM | CCN(c1cc(-c2ccc3c(c2)n(C)c(=O)n3C2CCOCC2)cc(C(=O)NCc2c(C)cc(C)[nH]c2=O)c1C)C1CCOCC1 | –
11 | 31.2 nM | CCN(c1cc(-c2ccc3c(c2)n(C)c(=O)n3C2CN(C(=O)C3CC3)C2)cc(C(=O)NCc2c(C)cc(C)[nH]c2=O)c1C)C1CCOCC1 | –
12 | 9.63 nM | CCN(c1cc(-c2ccc3c(c2)n(C)c(=O)n3C2CCN(C)CC2)cc(C(=O)NCc2c(C)cc(C)[nH]c2=O)c1C)C1CCC(N(C)CCOC)CC1 (stereo not given) | microsomal CLint at 1 µM [1]: 9.38 µL/min/mg; half-life at 1 µM [2]: 2.46 h; IC50 [3]: 0.17 nM; IC50 [4]: 0.14 nM
13 | 35 nM | CCN(c1cc(-c2ccc(CN3CCOCC3)cc2)cc(C(=O)NCc2c(C)cc(C)[nH]c2=O)c1C)C1CCOCC1 [TAZEMETOSTAT] | microsomal CLint at 1 µM [1]: 174 µL/min/mg; half-life at 1 µM [2]: 0.133 h; IC50 [3]: 0.85 nM; IC50 [4]: 0.37 nM
14 | 39.7 nM | CCN(c1cc(-c2ccc3c(c2)n(C)c(=O)n3C2CN(CC3CC3)C2)cc(C(=O)NCc2c(C)cc(C)[nH]c2=O)c1C)C1CCOCC1 | –
15 | 25.5 nM | CCN(c1cc(-c2ccc3c(c2)n(C)c(=O)n3C2CCN(C3COC3)CC2)cc(C(=O)NCc2c(C)cc(C)[nH]c2=O)c1C)C1CCOCC1 | –
16 | 43.5 nM | CCN(c1cc(-c2ccc3c(c2)n(C2CN(C)C2)c(=O)n3C)cc(C(=O)NCc2c(C)cc(C)[nH]c2=O)c1C)C1CCOCC1 | –
17 | 85.8 nM | CCN(c1cc(-c2ccc3c(c2)n(C)c(=O)n3C2CCN(C(C)=O)CC2)cc(C(=O)NCc2c(C)cc(C)[nH]c2=O)c1C)C1CCOCC1 | –
18 | 52.9 nM | CCN1CC(n2c(=O)n(C)c3ccc(-c4cc(C(=O)NCc5c(C)cc(C)[nH]c5=O)c(C)c(N(CC)C5CCOCC5)c4)cc32)C1 | –
19 | 57.4 nM | CCN(c1cc(-c2ccc3c(c2)n(C)c(=O)n3C2COC2)cc(C(=O)NCc2c(C)cc(C)[nH]c2=O)c1C)C1CCOCC1 | –

Row | IC50 (KARPAS-422) | Compound | other results
20 | 51.2 nM | CCN(c1cc(-c2ccc3c(c2)[nH]c(=O)n3C2CCOCC2)cc(C(=O)NCc2c(C)cc(C)[nH]c2=O)c1C)C1CCOCC1 | –
21 | 24.6 nM | CCN(c1cc(-c2ccc3c(c2)n(C)c(=O)n3C2CCN(CC3CC3)CC2)cc(C(=O)NCc2c(C)cc(C)[nH]c2=O)c1C)C1CCOCC1 | –
22 | 29.8 nM | CCN(C(=O)C1CC1)c1cc(-c2ccc3c(c2)n(C)c(=O)n3C2CCN(C)CC2)cc(C(=O)NCc2c(C)cc(C)[nH]c2=O)c1C | –
23 | 23.2 nM | CCN(c1cc(-c2ccc3c(c2)n(C)c(=O)n3C2CCN(C)CC2)cc(C(=O)NCc2c(C)cc(C)[nH]c2=O)c1C)C1CCC(N(C)C2COC2)CC1 (stereo not given) | –
24 | 145 nM | CCN(c1cc(-c2ccc3c(c2)n(C)c(=O)n3C2CN(C(C)=O)C2)cc(C(=O)NCc2c(C)cc(C)[nH]c2=O)c1C)C1CCOCC1 | –
25 | 60.8 nM | CCN(c1cc(-c2ccc3c(c2)n(C)c(=O)n3CCOC)cc(C(=O)NCc2c(C)cc(C)[nH]c2=O)c1C)C1CCOCC1 | –
26 | 18.4 nM | CCN(c1cc(-c2ccc3c(c2)n(C)c(=O)n3C2CCN(C)CC2)cc(C(=O)NCc2c(C)cc(C)[nH]c2=O)c1C)C1CCOCC1 | –
27 | 173 nM | CCN(c1cc(-c2ccc3c(c2)n(C)c(=O)n3C2CCN(C)CC2)cc(C(=O)NCc2c(C)cc(C)[nH]c2=O)c1C)C1CCN(C)CC1 | –
28 | 219 nM | CCN(c1cc(-c2ccc3c(c2)n(C)c(=O)n3C2CCN(C)CC2)cc(C(=O)NCc2c(C)cc(C)[nH]c2=O)c1C)C1CCN(C2COC2)CC1 | –
29 | 27.8 nM | CCN(c1cc(-c2ccc3c(c2)n(C)c(=O)n3C2CCN(C(=O)C3CC3)CC2)cc(C(=O)NCc2c(C)cc(C)[nH]c2=O)c1C)C1CCOCC1 | –
30 | 45.6 nM | CCN(c1cc(-c2ccc3c(c2)n(C)c(=O)n3C2CN(CC(F)F)C2)cc(C(=O)NCc2c(C)cc(C)[nH]c2=O)c1C)C1CCOCC1 | –
31 | 50.6 nM | CCN(c1cc(-c2ccc3c(c2)n(C)c(=O)n3C2CCN(CC(F)F)CC2)cc(C(=O)NCc2c(C)cc(C)[nH]c2=O)c1C)C1CCOCC1 | –
32 | 58.2 nM | CCN(c1cc(-c2ccc3c(c2)n(C)c(=O)n3C2CN(CC#N)C2)cc(C(=O)NCc2c(C)cc(C)[nH]c2=O)c1C)C1CCOCC1 | –
33 | 29.9 nM | CCN(c1cc(-c2ccc3c(c2)n(C2CCOCC2)c(=O)n3C)cc(C(=O)NCc2c(C)cc(C)[nH]c2=O)c1C)C1CCOCC1 | –
34 | 23.5 nM | CCN1CCC(n2c(=O)n(C)c3cc(-c4cc(C(=O)NCc5c(C)cc(C)[nH]c5=O)c(C)c(N(CC)C5CCOCC5)c4)ccc32)CC1 | –
35 | 62.5 nM | CCN(c1cc(-c2ccc3c(c2)n(CC)c(=O)n3C2CCOCC2)cc(C(=O)NCc2c(C)cc(C)[nH]c2=O)c1C)C1CCOCC1 | –
36 | 52.8 nM | CCN(c1cc(-c2ccc3c(c2)n(C)c(=O)n3C2CCN(CC(F)(F)F)CC2)cc(C(=O)NCc2c(C)cc(C)[nH]c2=O)c1C)C1CCOCC1 | –
37 | 105 nM | CCN(c1cc(-c2ccc3c(c2)n(C)c(=O)n3C2CCN(C)CC2)cc(C(=O)NCc2c(C)cc(C)[nH]c2=O)c1C)C1CCN(C(C)=O)CC1 | –
